Experimental data as given in patent publication US11466044B2 (WAYNE STATE UNIVERSITY, priority 2017, dated 2022).
≈ marks a conversion by molar mass, not a printed value. Counter-ions that a name gives are not always drawn. Like-named read-outs stand apart in the source and are kept apart here.

How the values were obtained:
E coli wild type = assay: MIC by broth microdilution, wild type E coli; type: cell-based; settings: for MIC / MIC50: Escherichia coli; for MIC50: Table 1 (Example 1)
[1] = tested on: Klebsiella pneumonia AG215; assay: MIC by broth microdilution, Klebsiella pneumonia; type: cell-based; settings: Klebsiella pneumoniae; strain AG215 Klebsiella pneumonia; read-out: MIC AG215 K. pneumon
[2] = tested on: wild type bacterial ribosomes; assay: in-vitro translation assay, bacterial ribosomes; type: biochemical
Description: (§1) The antiribosomal activity of these compounds was investigated with cell-free translation assays using both wild type bacterial ribosomes and hybrid ribosomes carrying eukaryotic decoding A sites enabling the prediction of selectivity.

[3] = tested on: Enterobacter cloacae AG290; assay: MIC by broth microdilution, Enterobacter cloacae; type: cell-based; settings: strain AG290 Enterobacter cloacae; read-out: MIC AG290 E. cloacae
MRSA = assay: MIC by broth microdilution, MRSA isolates; type: cell-based; settings: for MIC50: Staphylococcus aureus, MRSA, Table 1 (Example 1)
P aeruginosa = assay: MIC by broth microdilution, P aeruginosa isolates; type: cell-based, Pseudomonas aeruginosa; settings: for MIC50: Pseudomonas aeruginosa; for MIC: strain AG220 Pseudomonas aeruginosa ATCC27853, read-out: MIC AG220 P. aerugin
[4] = tested on: Acinetobacter baumannii pittii AG225; assay: MIC by broth microdilution, Acinetobacter baumannii; type: cell-based; settings: strain AG225 Acinetobacter baumannii pittii
[5] = tested on: cytosolic ribosome (human chimeric); type: biochemical
Description: as §1

[6] = tested on: mitochondrial ribosome (human chimeric); type: biochemical
Description: as §1

M. smegmatis SZ380 = assay: MIC by broth microdilution, M. smegmatis
[7] = tested on: E coli carrying specific resistance determinants; assay: MIC by broth microdilution, E coli carrying specific resistance determinants; type: cell-based; settings: for MIC50 / MIC: Escherichia coli
[8] = tested on: A1555G mutant mitochondrial ribosome (human chimeric); assay: in-vitro translation assay, human chimeric ribosomes, A1555G mutant mitochondrial decoding site; type: biochemical; settings: human mitochondrial decoding site with A1555G point mutation; read-out: IC50 Mitoch. A1555G
Description: as §1

[9] = ATCC25922, strain AG212 E. coli (ATCC25922), read-out: MIC AG212 E. coli

CC1CC(N)C2O[C@H](O[C@@H]3C(N)C[C@@H](N)C(O)[C@H]3O[C@@H]3O[C@H](CO)[C@H](O[C@H]4O[C@@H](CN)[C@@H](O)C(O)C4N)C3O)C(N)[C@@H](O)[C@@H]2O1 (stereo partly drawn) [Compound 139, 4-O-(2′,6′-Diamino-4′,8′-anhydro-2′,6′,7′,9′-tetradeoxy-D-threo-α-D-gluco-nonapyranosyl)-5-O-(β-paramobiosyl)-2-deoxystreptamine.6AcOH]
MIC50 E coli BM13 (AG06) wt (E coli wild type; BM13 (AG06) wt, Table 2A (Example 2)): 1 to 2 µg/mL | MIC (E coli wild type; [9]): 1 µg/mL (≈ 1.53 µM) | MIC WT (E coli wild type; WT, Table 3 (Example 2)): 0.5 to 1 µg/mL | MIC50 E coli pH430 WT (E coli wild type; pH430 WT, Table 2B (Example 2)): 0.5-1 μg/ml | MIC50 E coli AG01 (E coli wild type; strain AG01, Table 1 (Example 2)): 2 µg/mL (≈ 3.05 µM) | MIC50 E coli AG03 (E coli wild type; strain AG03, Table 1 (Example 2)): 2 µg/mL (≈ 3.05 µM) | MIC50 E coli AG55 (E coli wild type; strain AG55, Table 1 (Example 2)): 2 µg/mL (≈ 3.05 µM) | MIC [1]: 0.5 to 1 µg/mL (≈ 0.764 to 1.53 µM) | IC50 ([2]; bacterial ribosome, Table 3 (Example 2), read-out: IC50 Bac): 0.12 µM | MIC [3]: 1 µg/mL (≈ 1.53 µM) | MIC50 MRSA AG38 (MRSA; strain AG38, Table 1 (Example 2)): 4 µg/mL (≈ 6.11 µM) | MIC50 MRSA AG39 (MRSA; strain AG39, Table 1 (Example 2)): 4 µg/mL (≈ 6.11 µM) | MIC50 MRSA AG42 (MRSA; strain AG42, Table 1 (Example 2)): 2 µg/mL (≈ 3.05 µM) | MIC50 MRSA AG44 (MRSA; strain AG44, Table 1 (Example 2)): 2 µg/mL (≈ 3.05 µM) | MIC50 (P aeruginosa; strain AG33, Table 1 (Example 2), read-out: MIC50 P aeruginosa AG33): 128 µg/mL (≈ 196 µM) | MIC50 (P aeruginosa; strain AG86, Table 1 (Example 2), read-out: MIC50 P aeruginosa AG86): 128 µg/mL (≈ 196 µM) | MIC50 P aeruginosa AG31 (P aeruginosa; strain AG31, Table 1 (Example 2)): 32 µg/mL (≈ 48.9 µM) | MIC50 P aeruginosa AG32 (P aeruginosa; strain AG32, Table 1 (Example 2)): 32 µg/mL (≈ 48.9 µM) | MIC (P aeruginosa): 16 to 32 µg/mL (≈ 24.4 to 48.9 µM) | MIC [4]: 4 µg/mL (≈ 6.11 µM) | IC50 ([5]; cytosolic, Table 3 (Example 2), read-out: IC50 Cyt): 19 µM | IC50 ([6]; mitochondrial, Table 3 (Example 2), read-out: IC50 Mit): 2.3 µM | MIC SZ380 M. smegmatis (M. smegmatis SZ380; strain SZ380 Mycobacterium smegmatis): 1 to 2 µg/mL | MIC50 ([7]; read-out: MIC50 E coli AG07 AAC(3), AG07 AAC(3), Table 2A (Example 2)): 4 µg/mL (≈ 6.11 µM) | MIC50 ([7]; read-out: MIC50 E coli AG09 AAC(6′), AG09 AAC(6′), Table 2A (Example 2)): 2 µg/mL (≈ 3.05 µM) | MIC50 ([7]; read-out: MIC50 E coli AG036 ANT(4′,4″), AG036 ANT(4′,4″), Table 2A (Example 2)): 2 µg/mL (≈ 3.05 µM) | MIC50 ([7]; read-out: MIC50 E coli AG036 ANT(4′,4″), AG036 ANT(4′,4″), Table 2B (Example 2)): 0.25 µg/mL (≈ 0.382 µM) | MIC50 ([7]; read-out: MIC50 E coli AG037 APH(3′)-III, AG037 APH(3′)-III, Table 2B (Example 2)): 8 to 16 µg/mL (≈ 12.2 to 24.4 µM) | MIC50 ([7]; read-out: MIC50 E coli AG037 APH(3′,5″), AG037 APH(3′,5″), Table 2A (Example 2)): 32 to 64 µg/mL (≈ 48.9 to 97.8 µM) | MIC50 ([7]; read-out: MIC50 E coli AG103 ArmA, AG103 ArmA, Table 2A (Example 2)): 2 µg/mL (≈ 3.05 µM) | MIC50 ([7]; read-out: MIC50 E coli AG103 armA, AG103 armA, Table 2B (Example 2)): 0.5 µg/mL (≈ 0.764 µM) | MIC50 ([7]; read-out: MIC50 E coli AG105 AAC(2′), AG105 AAC(2′), Table 2A (Example 2)): 2 to 4 µg/mL (≈ 3.05 to 6.11 µM) | MIC50 ([7]; read-out: MIC50 E coli pH414 AAC(6′)-I, pH414 AAC(6′)-I, Table 2B (Example 2)): 1 µg/mL (≈ 1.53 µM) | MIC50 ([7]; read-out: MIC50 E coli pH415 AAC(6′)-II, pH415 AAC(6′)-II, Table 2B (Example 2)): 1 µg/mL (≈ 1.53 µM) | MIC50 ([7]; read-out: MIC50 E coli pH421 APH(3′)-I, pH421 APH(3′)-I, Table 2B (Example 2)): > 32 µg/mL | MIC50 ([7]; read-out: MIC50 E coli pH422 APH(3′)-II, pH422 APH(3′)-II, Table 2B (Example 2)): 8 µg/mL (≈ 12.2 µM) | MIC50 ([7]; read-out: MIC50 E coli pH423 APH(3)-VI, pH423 APH(3)-VI, Table 2B (Example 2)): 1 to 2 µg/mL (≈ 1.53 to 3.05 µM) | MIC50 ([7]; read-out: MIC50 E coli pH432 ANT(4′), pH432 ANT(4′), Table 2B (Example 2)): 1 µg/mL (≈ 1.53 µM) | MIC ([7]; read-out: MIC AAC(6′)): 1 µg/mL (≈ 1.53 µM) | MIC ([7]; read-out: MIC ANT(4′)): 0.25 µg/mL (≈ 0.382 µM) | MIC ([7]; read-out: MIC APH(3′)-II): 8 µg/mL (≈ 12.2 µM) | MIC ([7]; read-out: MIC APH(3′)-VI): 1 to 2 µg/mL (≈ 1.53 to 3.05 µM)

CC(=O)NC[C@H]1O[C@@H](O[C@@H]2C(O)[C@H](N)CC(N)[C@H]2O[C@H]2OC(CO)[C@@H](O)[C@H](O)C2N)C(O)[C@H]1O[C@H]1O[C@@H](CN)[C@@H](O)C(O)C1N (stereo partly shown) [Compound 165, 5″-Acetamido-5″-deoxy-paromomycin-acetate salt]
MIC (E coli wild type; AG006 wt, Table 2 (Example 1), read-out: MIC E coli AG006 wt): 4 to 8 µg/mL | MIC (E coli wild type; [9]): 16 µg/mL | MIC (E coli wild type; clinical isolate AG160 WT, Table 2 (Example 4), read-out: MIC AG160 E. coli WT): 8 µg/mL | MIC (E coli wild type; engineered strain pH430 WT, Table 2 (Example 4), read-out: MIC pH430 E. coli WT): 8 to 16 µg/mL | MIC50 (E coli wild type; strain AG01, read-out: MIC50 E coli AG01): 64 µg/mL | MIC50 (E coli wild type; strain AG03, read-out: MIC50 E coli AG03): 32 to 64 µg/mL | MIC50 (E coli wild type; strain AG55, read-out: MIC50 E coli AG55): 32 µg/mL | MIC [1]: 8 µg/mL | MIC [3]: 8 µg/mL | MIC50 (MRSA; strain AG38, read-out: MIC50 MRSA AG38): 16 to 32 µg/mL | MIC50 (MRSA; strain AG39, read-out: MIC50 MRSA AG39): > 128 µg/mL | MIC50 (MRSA; strain AG42, read-out: MIC50 MRSA AG42): > 128 µg/mL | MIC50 (MRSA; strain AG44, read-out: MIC50 MRSA AG44): 16 µg/mL | MIC50 (P aeruginosa; strain AG31, Table 1 (Example 1), read-out: MIC50 P aeruginosa AG31): > 128 µg/mL | MIC50 (P aeruginosa; strain AG32, Table 1 (Example 1), read-out: MIC50 P aeruginosa AG32): > 128 µg/mL | MIC50 (P aeruginosa; strain AG33, Table 1 (Example 1), read-out: MIC50 P aeruginosa AG33): > 128 µg/mL | MIC50 (P aeruginosa; strain AG86, Table 1 (Example 1), read-out: MIC50 P aeruginosa AG86): > 128 µg/mL | MIC (P aeruginosa): > 64 µg/mL | MIC [4]: 8 to 16 µg/mL | MIC (M. smegmatis SZ380; Mycolicibacterium smegmatis, SZ380, read-out: MIC SZ380 M. smegmatis, strain SZ380 Mycobacterium smegmatis): 32 µg/mL | MIC ([7]; read-out: MIC AG037 E. coli APH(3′)-III): > 64 µg/mL | MIC ([7]; read-out: MIC pH421 E. coli APH(3′)-I): > 64 µg/mL | MIC ([7]; read-out: MIC pH422 E. coli APH(3′)-II): > 64 µg/mL | MIC ([7]; read-out: MIC pH423 E. coli APH(3′)-VI): > 64 µg/mL

NCC1OC(OC2C(CO)OC(OC3C(O)C(N)CC(N)C3OC3OC4C(O)CCOC4C(O)C3N)C2O)C(N)C(O)C1O (stereo not shown) [DC210]
MIC pH430 WT (E coli wild type; E. coli strain pH430, WT): 2-4 μg/ml | MIC AG001 E. coli WT (E coli wild type; clinical isolate AG001, WT): 4 µg/mL (≈ 6.23 µM) | IC50 ([2]; Mycobacterium smegmatis ribosomes, read-out: IC50 Bacterial): 0.04 µM | MIC AG038 MRSA (MRSA; clinical isolate AG038): 4 µg/mL (≈ 6.23 µM) | MIC AG031 P. aer. APH(3′)-II (P aeruginosa; clinical isolate AG031, APH(3′)-II): 64 µg/mL (≈ 99.7 µM) | IC50 ([5]; ribosomes with a human cytosolic decoding site, read-out: IC50 Cytosolic): 50 µM | IC50 ([6]; ribosomes with a human mitochondrial decoding site, read-out: IC50 Mitoch.): 329 µM | IC50 [8]: 44 µM | MIC AG036 ANT(4′,4′′) ([7]; E. coli strain AG036, ANT(4′,4′′)): 2 µg/mL (≈ 3.12 µM) | MIC AG037 APH(3′)-III ([7]; E. coli strain AG037, APH(3′)-III): >128 µg/mL | MIC pH421 APH(3)-I ([7]; E. coli strain pH421, APH(3)-I): >128 μg/ml | MIC pH422 APH(3′)-II ([7]; E. coli strain pH422, APH(3′)-II): 32 μg/ml | MIC pH423 APH(3′)-VI ([7]; E. coli strain pH423, APH(3′)-VI): 4 μg/ml
